Residues, ends and D or L forms follow the SMILES beside them. *: point of attachment. MeOSuc = COC(=O)CCC(=O)*; CH2Cl = ClC*
Columns and labels:
Format in all cases: cell-based
U937 cells [1] = test: KCN (5 mM)-induced necrosis in U937 cells, LDH release assay, Humanin derivative with Mimosine (Example 3); settings: 7 hours
Protocol: (§1) The U937 cells are p53 minus monocytic cell line. The cells were grown at 37° C. in the presence of 5% CO2 in RPMI-1640 medium supplemented with 10% heat-inactivated fetal bovine serum (FCS), 2 Mm glutamine, 100 μg/ml penicillin, and 100 μg/ml streptomycin. The cells were split every third day.
(§2) U937 cells were cultured in complete RPMI-1640 medium, washed once and seeded at 4.5×10^5 cells/ml in glucose free medium 1 hour before treatment. Humanin or its derivatives of SEQ ID MOs 1-6 and Mimosine and vehicle were added 30 minutes before the addition of KCN (5 mM). Following the treatment, the cells were incubated for 7 hours and cell death was measured via the LDH release assay.
(§3) The amount of LDH released from lysed cells is a sensitive measure of cell death. In this study, necrotic cell death was measured in 96-well plates using Promega's CytoTox 96 Non-Radioactive Cytotoxicity Assay kit, which accurately and rapidly measures cell death by quantitating the release of lactate dehydrogenase (LDH), a stable cytosolic enzyme from lysed cells.
(§4) At the end of each experiment, the cells were centrifuged at 240×g for 10 minutes at room temperature. Next, the supernatant was collected and 50 μL aliquots were taken for the LDH release assay. The LDH content from cells lysed in 0.1% Tryton X-100 for 10-15 minutes was used as a measure for total LDH content. The LDH released in the treatment (after subtracting the blank measure) was used for measuring necrotic cell death as a percentage from total LDH. A measurement of the absorbance value at 490 nm was preformed by ELISA READER, 30 minutes after the addition of the LDH reaction solution.

U-937 cells = test: KCN-induced necrosis in U-937 cells, LDH release (Example 1); settings: 10 μM peptide, LDH release after 7 hours (FIG. 1)
Protocol: FIGS. 1A-1B. […] LDH release was measured after 7 hours (see, FIG. 1A) % LDH release with the crude data; (see, FIG. 1B) The amount of LDH released of control cells was subtracted from all treatments, P*<0.02. […] The effects of HN and its derivatives on necrotic cell death induced by staurosporine/oligomicyn in PC12 cells are depicted in FIG. 4 (by LDH release) and FIG. 5 (ethydium bromide and acridine orange staining).

PC12 cells = test: KCN-induced necrosis in PC12 cells, LDH release; settings: LDH release after 5 hours (FIG. 2 and FIG. 3)
Protocol: FIGS. 2A-2B. […] LDH release was measured after 5 hours (see, FIG. 2A) % LDH release with the crude data; (see, FIG. 2B) The amount of LDH released from control cells was subtracted from all treatments, P*<0.05. FIG. 3. Is a bar graph showing the effect of different HN17 concentrations on KCN-induced necrosis in PC12 cells as assessed by the determination of LDH release. PC12 cells were treated with or without 7 mM KCN for 5 hours in the presence or absence of different concentrations of HN17 (1-30 μM), and then LDH release from the cells was determined, P*<0.04. […] The effects of HN and its derivatives on necrotic cell death induced by staurosporine/oligomicyn in PC12 cells are depicted in FIG. 4 (by LDH release) and FIG. 5 (ethydium bromide and acridine orange staining).

U937 cells [2] = test: KCN (15 mM)-induced necrosis in U937 cells, LDH release assay, Humanin derivative with Elastase inhibitor III (Example 2); settings: 7 hours
Protocol: as §1
as §2, with “Elastase inhibitor III (EI-III)” for “Mimosine”, “(15” for “(5”
as §3, §4

Molecule: NC(Cn1ccc(=O)c(O)c1)C(=O)O (centres unmarked) [mimosine, Mimosine, reference compound]
- inhibition of necrotic cell death (U937 cells [1]; mimosine at 30 μM): no inhibition
- inhibition of necrotic cell death (U937 cells [1]; mimosine at 70 μM): no inhibition
- inhibition of cell death by necrosis (U937 cells [1]; mimosine at 300 μM): 12%

Molecule: PRGFSCLLLLTSEIDLP [HN17, Humanin derivative; the short name HN17 is also printed for AGA-C8R-HNG17]
- protection against KCN-induced necrotic cell death as measured by LDH release (U-937 cells): conferred protection
- protection against KCN-induced necrotic cell death as measured by LDH release (PC12 cells): confers protection

Molecule: MAPRGFSCLLLLTGEIDLPVKRRA [HNG, Humanin derivative]
- inhibition of necrotic cell death (U937 cells [1]; HNG at 1 μM): no inhibition
- inhibition of necrotic cell death (U937 cells [1]; HNG at 10 μM): no inhibition
- inhibition of necrotic cell death (U937 cells [1]; HNG at 301 μM): no inhibition

Molecule: MAPAGASCLLLLTGEIDLPVKRRA [AGA-HNG, Humanin derivative]
- protection against KCN-induced necrotic cell death as measured by LDH release (U-937 cells): conferred protection
- impact on necrotic cell death induced by KCN (U937 cells [2]; AGA-HNG at 1 μM): no impact
- impact on necrotic cell death induced by KCN (U937 cells [2]; AGA-HNG at 10 μM): no impact

Molecule: COC(=O)CCC(=O)N[C@@H](C)C(=O)N[C@@H](C)C(=O)N1CCC[C@H]1C(=O)N[C@H](C(=O)CCl)C(C)C [EI-III, HLE Inhibitor MeOSuc-AAPV-CMK] (MeOSuc-AAPV-CH2Cl)
- impact on necrotic cell death induced by KCN (U937 cells [2]; EI-III at 50 μM): no impact
- inhibition of cell death by necrosis (U937 cells [2]; EI-III at 100 μM): 75%
- inhibition of cell death by necrosis (U937 cells [2]; EI-III at 300 μM): 75%

— patent US20200009221A1, “METHODS FOR INHIBITING NECROSIS” (priority 2010, published 2020)
